Laboratory results reported in the supplement of paper PMC8967900.

How the values were obtained:
Assay in all cases: selective drug sensitivity score (sDSS, relative to normal bone marrow) (sDSS (score)); higher = more potent and effective on the cell line relative to normal bone marrow cells
Settings in all cases: 72 h
TMD5 = system: TMD5
CCRF-CEM = system: CCRF-CEM
COG-LL-332h = system: COG-LL-332h
ALL-SIL = system: ALL-SIL
KASUMI-9 = system: KASUMI-9
P30-OHKUBO = system: P30-OHKUBO
COG-LL-402h = system: COG-LL-402h
NALM-6 = system: NALM-6
CCRF-HSB2 = system: CCRF-HSB2
P12-ICHIKAWA = system: P12-ICHIKAWA
JURKAT = system: JURKAT
TANOUE = system: TANOUE
COG-LL-355h = system: COG-LL-355h
RPMI-8402 = system: RPMI-8402
PEER = system: PEER
COG-LL-394h = system: COG-LL-394h
COG-LL-317 = system: COG-LL-317
LC4-1 = system: LC4-1
KARPAS-45 = system: KARPAS-45
PF-382 = system: PF-382
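Further: ALL cell lines in 384-well plates, five doses spanning 10,000-fold, each plate scaled between vehicle and 100 µmol/L benzalkonium chloride controls, sDSS an adapted area-under-curve metric.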

SMILES	selective drug sensitivity score (TMD5)	selective drug sensitivity score (CCRF-CEM)	selective drug sensitivity score (COG-LL-332h)	selective drug sensitivity score (ALL-SIL)	selective drug sensitivity score (KASUMI-9)	selective drug sensitivity score (P30-OHKUBO)	selective drug sensitivity score (COG-LL-402h)	selective drug sensitivity score (NALM-6)	selective drug sensitivity score (CCRF-HSB2)	selective drug sensitivity score (P12-ICHIKAWA)	selective drug sensitivity score (JURKAT)	selective drug sensitivity score (TANOUE)	selective drug sensitivity score (COG-LL-355h)	selective drug sensitivity score (RPMI-8402)	selective drug sensitivity score (PEER)	selective drug sensitivity score (COG-LL-394h)	selective drug sensitivity score (COG-LL-317)	selective drug sensitivity score (LC4-1)	selective drug sensitivity score (KARPAS-45)	selective drug sensitivity score (PF-382)
C=CC(=O)Nc1cc(Nc2nccc(-c3cn(C)c4ccccc34)n2)c(OC)cc1N(C)CCN(C)C [Osimertinib] (top concentration 2500 nM)	2.98	-0.52	-0.32	-2.52	3.88	1.08	0.78	-1.62	0.08	-3.02	-4.22	-5.22	2.98	-0.42	1.28	1.68	0.78	-0.42	-1.92	-2.12
O=C(Nc1cc(Cl)cc2c1[nH]c1cnccc12)c1cccnc1 [PS-1145] (top concentration 25000 nM)	-0.46	-0.46	-0.46	-0.46	0.44	1.94	-0.46	-0.46	1.34	-0.46	-0.36	-0.46	-0.46	-0.46	-0.46	-0.46	-0.46	-0.46	0.34	-0.46
CC(=O)O[C@H]1C(=O)[C@@]2(C)[C@H]([C@H](OC(=O)c3ccccc3)[C@]3(O)C[C@H](OC(=O)[C@H](O)[C@@H](NC(=O)c4ccccc4)c4ccccc4)C(C)=C1C3(C)C)[C@]1(OC(C)=O)CO[C@@H]1C[C@@H]2O [Paclitaxel] (top concentration 1000 nM)	8.14	18.3	20.5	20.8	19.6	22	12.8	16.7	18.8	19.9	18.3	-10.8	5.14	16	22.2	6.84	19.6	23	18.3	13.2
CCCCCCCCCCCCCCCCCCOP(=O)([O-])OC1CC[N+](C)(C)CC1 [Perifosine] (top concentration 2500 nM)	-0.36	-0.16	-0.36	-0.36	-0.36	-0.36	4.04	-0.36	-0.36	-0.36	-0.36	-0.36	0.64	-0.36	-0.36	-0.36	-0.36	4.04	-0.26	-0.36
